{"source": "PubChem BioAssay AID1918944", "about": "(Molecular Pharmacology Branch, DTP, NCI, 2023)", "tested_on": "786-0 complex spheroid viability", "experiment": "Anticancer human tumor 786-0 cell line growth inhibition;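 note: spheroids exposed to agents for seven days before readout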", "conditions": "for viability, T/C: stronger effect = lower value", "how_it_was_run": "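Complex spheroids of tumor cells with HUVEC and human MSCs, exposed to iadademstat combined with other agents. Each agent tested in half-log steps from near clinical Cmax (else 10 microM top), DMSO ≤0.25%.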", "key": {"[1]": {"conditions": "curve of first compound, second compound 0.1 µM"}, "[2]": {"conditions": "curve of first compound, second compound 0.316 µM"}, "[3]": {"conditions": "curve of first compound, second compound 1 µM"}, "[4]": {"conditions": "curve of first compound, second compound 3.16 µM"}, "[5]": {"conditions": "curve of first compound, second compound 10 µM"}, "[6]": {"conditions": "second compound 0.1 µM, first compound 0.00949 µM"}, "[7]": {"conditions": "second compound 0.1 µM, first compound 0.03 µM"}, "[8]": {"conditions": "second compound 0.1 µM, first compound 0.0949 µM"}, "[9]": {"conditions": "second compound 0.1 µM, first compound 0.3 µM"}, "[10]": {"conditions": "second compound 0.316 µM, first compound 0.00949 µM"}, "[11]": {"conditions": "second compound 0.316 µM, first compound 0.03 µM"}, "[12]": {"conditions": "second compound 0.316 µM, first compound 0.0949 µM"}, "[13]": {"conditions": "second compound 0.316 µM, first compound 0.3 µM"}, "[14]": {"conditions": "second compound 1 µM, first compound 0.00949 µM"}, "[15]": {"conditions": "second compound 1 µM, first compound 0.03 µM"}, "[16]": {"conditions": "second compound 1 µM, first compound 0.0949 µM"}, "[17]": {"conditions": "second compound 1 µM, first compound 0.3 µM"}, "[18]": {"conditions": "second compound 3.16 µM, first compound 0.00949 µM"}, "[19]": {"conditions": "second compound 3.16 µM, first compound 0.03 µM"}, "[20]": {"conditions": "second compound 3.16 µM, first compound 0.0949 µM"}, "[21]": {"conditions": "second compound 3.16 µM, first compound 0.3 µM"}, "[22]": {"conditions": "second compound 10 µM, first compound 0.00949 µM"}, "[23]": {"conditions": "second compound 10 µM, first compound 0.03 µM"}, "[24]": {"conditions": "second compound 10 µM, first compound 0.0949 µM"}, "[25]": {"conditions": "second compound 10 µM, first compound 0.3 µM"}}, "note": "pIC50: −log10 of the molar value. Several values for one entry are separate records, joined by “and”; a condition that tells them apart may be missing. Equal values may be shown once. Activity calls are given as the source filed them. Rule for the calls: active = viability on the fitted dose curve at most 10% of control; inactive = the rest."}
{"smiles": "NS(=O)(=O)OCC1CC(n2ccc3c(NC4CCc5ccccc54)ncnc32)CC1O", "note": "(centres undefined) + NC1CCC(NC2CC2c2ccccc2)CC1", "values": [{"measurement": "pIC50", "setting": "[1]", "result": 6.90}, {"measurement": "pIC50", "setting": "[2]", "result": 6.86}, {"measurement": "pIC50", "setting": "[3]", "result": 6.82}, {"measurement": "pIC50", "setting": "[4]", "result": 6.88}, {"measurement": "pIC50", "setting": "[5]", "result": 6.98}, {"measurement": "viability, T/C", "setting": "[6]", "result": 111, "unit": "%"}, {"measurement": "viability, T/C", "setting": "[7]", "result": 86.7, "unit": "%"}, {"measurement": "viability, T/C", "setting": "[8]", "result": 65.6, "unit": "%"}, {"measurement": "viability, T/C", "setting": "[9]", "result": 13.4, "unit": "%"}, {"measurement": "viability, T/C", "setting": "second compound 0.1 µM, first compound 0.949 µM", "result": 3.43, "unit": "%"}, {"measurement": "viability, T/C", "setting": "second compound 0.1 µM, first compound 3 µM", "result": 5.07, "unit": "%"}, {"measurement": "viability, T/C", "setting": "[10]", "result": 115, "unit": "%"}, {"measurement": "viability, T/C", "setting": "[11]", "result": 87.3, "unit": "%"}, {"measurement": "viability, T/C", "setting": "[12]", "result": 71.4, "unit": "%"}, {"measurement": "viability, T/C", "setting": "[13]", "result": 15.2, "unit": "%"}, {"measurement": "viability, T/C", "setting": "second compound 0.316 µM, first compound 0.949 µM", "result": 3.67, "unit": "%"}, {"measurement": "viability, T/C", "setting": "second compound 0.316 µM, first compound 3 µM", "result": 5.22, "unit": "%"}, {"measurement": "viability, T/C", "setting": "[14]", "result": 113, "unit": "%"}, {"measurement": "viability, T/C", "setting": "[15]", "result": 94.6, "unit": "%"}, {"measurement": "viability, T/C", "setting": "[16]", "result": 74.2, "unit": "%"}, {"measurement": "viability, T/C", "setting": "[17]", "result": 17.9, "unit": "%"}, {"measurement": "viability, T/C", "setting": "second compound 1 µM, first compound 0.949 µM", "result": 3.16, "unit": "%"}, {"measurement": "viability, T/C", "setting": "second compound 1 µM, first compound 3 µM", "result": 4.86, "unit": "%"}, {"measurement": "viability, T/C", "setting": "[18]", "result": 101, "unit": "%"}, {"measurement": "viability, T/C", "setting": "[19]", "result": 78.9, "unit": "%"}, {"measurement": "viability, T/C", "setting": "[20]", "result": 67.3, "unit": "%"}, {"measurement": "viability, T/C", "setting": "[21]", "result": 15.5, "unit": "%"}, {"measurement": "viability, T/C", "setting": "second compound 3.16 µM, first compound 0.949 µM", "result": 3.16, "unit": "%"}, {"measurement": "viability, T/C", "setting": "second compound 3.16 µM, first compound 3 µM", "result": 3.27, "unit": "%"}, {"measurement": "viability, T/C", "setting": "[22]", "result": 73.6, "unit": "%"}, {"measurement": "viability, T/C", "setting": "[23]", "result": 58.5, "unit": "%"}, {"measurement": "viability, T/C", "setting": "[24]", "result": 54.6, "unit": "%"}, {"measurement": "viability, T/C", "setting": "[25]", "result": 15.5, "unit": "%"}, {"measurement": "viability, T/C", "setting": "second compound 10 µM, first compound 0.949 µM", "result": 1.53, "unit": "%"}, {"measurement": "viability, T/C", "setting": "second compound 10 µM, first compound 3 µM", "result": 1.72, "unit": "%"}]}
{"smiles": "CC(C)CC(NC(=O)CNC(=O)c1cc(Cl)ccc1Cl)B1OC(=O)CC(CC(=O)O)(C(=O)O)O1", "note": "(centres undefined)", "values": [{"measurement": "viability, T/C", "setting": "compound 0.000316 µM", "result": "108% and 107%"}, {"measurement": "viability, T/C", "setting": "compound 0.001 µM", "result": "106% and 104%"}, {"measurement": "viability, T/C", "setting": "compound 0.00316 µM", "result": "102% and 106%"}, {"measurement": "viability, T/C", "setting": "compound 0.01 µM", "result": "49.1% and 64.2%"}, {"measurement": "viability, T/C", "setting": "compound 0.0316 µM", "result": "30.4% and 36.4%"}, {"measurement": "viability, T/C", "setting": "compound 0.1 µM", "result": "7.53% and 16.1%"}, {"measurement": "pIC50", "setting": "curve of compound", "result": "7.94 and 7.75"}]}
{"smiles": "Nc1ccn(C2OC(CO)C(O)C2(F)F)c(=O)n1", "note": "(centres undefined) + NC1CC1c1ccc(-c2cccc(O)c2)cc1", "values": [{"measurement": "pIC50", "setting": "[1]", "result": "> 9.02"}, {"measurement": "pIC50", "setting": "[2]", "result": "> 9.02"}, {"measurement": "pIC50", "setting": "[3]", "result": "> 9.02"}, {"measurement": "pIC50", "setting": "[4]", "result": "> 9.02"}, {"measurement": "pIC50", "setting": "[5]", "result": "> 9.02"}, {"measurement": "viability, T/C", "setting": "second compound 0.1 µM, first compound 0.000949 µM", "result": 10.3, "unit": "%"}, {"measurement": "viability, T/C", "setting": "second compound 0.1 µM, first compound 0.003 µM", "result": 2.49, "unit": "%"}, {"measurement": "outcome", "setting": "[6]", "result": "active"}, {"measurement": "viability, T/C", "setting": "[7]", "result": 2.95, "unit": "%"}, {"measurement": "viability, T/C", "setting": "[8]", "result": 3.87, "unit": "%"}, {"measurement": "viability, T/C", "setting": "[9]", "result": 4.12, "unit": "%"}, {"measurement": "viability, T/C", "setting": "second compound 0.316 µM, first compound 0.000949 µM", "result": 9.54, "unit": "%"}, {"measurement": "viability, T/C", "setting": "second compound 0.316 µM, first compound 0.003 µM", "result": 2.66, "unit": "%"}, {"measurement": "outcome", "setting": "[10]", "result": "active"}, {"measurement": "viability, T/C", "setting": "[11]", "result": 2.74, "unit": "%"}, {"measurement": "viability, T/C", "setting": "[12]", "result": 4.19, "unit": "%"}, {"measurement": "viability, T/C", "setting": "[13]", "result": 3.51, "unit": "%"}, {"measurement": "viability, T/C", "setting": "second compound 1 µM, first compound 0.000949 µM", "result": 7.42, "unit": "%"}, {"measurement": "viability, T/C", "setting": "second compound 1 µM, first compound 0.003 µM", "result": 2.53, "unit": "%"}, {"measurement": "outcome", "setting": "[14]", "result": "active"}, {"measurement": "viability, T/C", "setting": "[15]", "result": 2.64, "unit": "%"}, {"measurement": "viability, T/C", "setting": "[16]", "result": 3.23, "unit": "%"}, {"measurement": "viability, T/C", "setting": "[17]", "result": 4, "unit": "%"}, {"measurement": "viability, T/C", "setting": "second compound 3.16 µM, first compound 0.000949 µM", "result": 9.36, "unit": "%"}, {"measurement": "viability, T/C", "setting": "second compound 3.16 µM, first compound 0.003 µM", "result": 2.32, "unit": "%"}, {"measurement": "outcome", "setting": "[18]", "result": "active"}, {"measurement": "viability, T/C", "setting": "[19]", "result": 2.75, "unit": "%"}, {"measurement": "viability, T/C", "setting": "[20]", "result": 3.87, "unit": "%"}, {"measurement": "viability, T/C", "setting": "[21]", "result": 6.57, "unit": "%"}, {"measurement": "viability, T/C", "setting": "second compound 10 µM, first compound 0.000949 µM", "result": 7.48, "unit": "%"}, {"measurement": "viability, T/C", "setting": "second compound 10 µM, first compound 0.003 µM", "result": 3.61, "unit": "%"}, {"measurement": "outcome", "setting": "[22]", "result": "active"}, {"measurement": "viability, T/C", "setting": "[23]", "result": 2.69, "unit": "%"}, {"measurement": "viability, T/C", "setting": "[24]", "result": 3.6, "unit": "%"}, {"measurement": "viability, T/C", "setting": "[25]", "result": 4.45, "unit": "%"}]}
{"smiles": "CCc1c2c(nc3ccc(O)cc13)-c1cc3c(c(=O)n1C2)COC(=O)[C@]3(O)CC", "values": [{"measurement": "viability, T/C", "setting": "compound 0.000949 µM", "result": "6% and 6.39%"}, {"measurement": "viability, T/C", "setting": "compound 0.003 µM", "result": "4.1% and 4.99%"}, {"measurement": "viability, T/C", "setting": "compound 0.00949 µM", "result": "3.66% and 5.52%"}, {"measurement": "viability, T/C", "setting": "compound 0.03 µM", "result": "3.36% and 6.78%"}, {"measurement": "viability, T/C", "setting": "compound 0.0949 µM", "result": "4.94% and 9.67%"}, {"measurement": "viability, T/C", "setting": "compound 0.3 µM", "result": "3.44% and 9.65%"}, {"measurement": "pIC50", "setting": "curve of compound", "result": "> 9.02"}]}
